Columns and labels:
[1] = tested on: supercoiled DNA plasmid pBR322; test: DNA cleavage assay (agarose gel electrophoresis); assay type: biochemical; settings: for Form I (%) / Form II (%) / Form III (%): 3 h, 37 °C, 250 ng pDNA
Excerpt: The gel electrophoresis separation of the supercoiled DNA plasmid pBR322 induced by prepared copper(II) complexes is shown in Figure 7. […] The cleavage activity of 4a and 4c increased remarkably with increasing concentration.
The DNA cleaving activities were also quantified using the “geneQUANT software” (Cleaver Scientific, UK). Data are expressed as percentage (%) expression of the amount of pDNA that has passed through the effect of the nuclease activity of the copper complex from the uncleaved supercoiled Form I to the cleaved Form II (open-circular pDNA) or Form III (linear pDNA) (Table 5). […] Therefore, each percentage can also be converted to the mass of pDNA turned to Form II or III. For example, for complex 4a at a 1 mM concentration, 41.2% of pDNA was cleaved to Form II, which is 103 ng of pDNA, or at a 3 mM concentration, 46.2% corresponds to 115.5 ng of pDNA. Quantification allows us to compare the specific complexes more precisely. […] Some aggregation might be present at higher concentrations, keeping the amount of reactive monomer at a lower level.
The ability of copper(II) complexes to cleave DNA was examined by following the conversion of supercoiled plasmid DNA (Form I) to the open-circular DNA (Form II) and/or linear DNA (forms using agarose gel electrophoresis to separate the cleavage products.
In general, 250 ng of the DNA plasmid pBBR 322 (in 25 mM TRIS-HCl buffer solution, pH 7.5) was treated with different concentrations (1 mM, 3 mM and 5 mM) of the copper(II) complex (dissolved in DMSO) for 3 h at 37 °C. After that, each reaction was quenched by adding 4 μL of a Smart Glow Loading Dye® (loading buffer solution with 0.01% Safe Green dye, 50% glycerol and 250 mM EDTA, pH 8.0) and the sample subjected to electrophoresis (MyGel Mini electrophoresis system®, Accuris, Edison, NJ, USA) on a 0.9% agarose gel containing TAE buffer (40 mM TRIS, 20 mM acetic acid and 1 mM EDTA) at a voltage of 55 V/40 mA for about 1.5 h. As a “running buffer”, TAE buffer (40 mM TRIS, 20 mM acetic acid and 1 mM EDTA) was used. The resulting gels were visualized with UV light and scanned by a mobile device, an Apple iPhone 11 cam 26 mm f1.8. DNA cleaving activities were quantified using the “geneQUANT software” (version 4.3.9, Cleaver Scientific, Rugby, UK).
In the following tables, the percentage (%) expression of the amount of pDNA that has passed through the effect of the nuclease activity of the copper complex from the uncleaved supercoiled form I to the cleaved form II (open circular pDNA) or form III (linear pDNA). Quantitative evaluation was performed using the […] (Cleaver Scientific, UK). V (tested sample) = 20 ul; c (pDNA) = 250 […]
Figure S2-1: The original gel scan: upper left lines 1 – 4 complex 4a (0 mM, 1 mM, 3mM, 5mM), upper lines 6 – 9 complex 4b (0 mM, 1 mM, 3mM, 5mM), lower lines 1 – 4 complex 4c (0 mM, 1 mM, 3mM, […]
(1 picture or pasted object on this page, not shown here)

S. cerevisiae cells = test: Resazurin cytotoxicity assay (mitochondrial activity); assay type: cell-based; settings: for Cell Death (%) / Reduction Percentage (%): 3 h incubation
Excerpt: The resazurin-based model that monitors mitochondrial activity is widely used as an indicator of cell viability, proliferation and cytotoxicity. This method is based on the reduction of resazurin to resorufin by mitochondrial enzymes, as carriers of diaphorase activities, like NADPH-dehydrogenase, which are responsible for the transference of electrons from NADPH^+, H^+ to resazurin. The reduction of resazurin correlates with the number of live bacterial or mammalian cells or fungi. Furthermore, S. cerevisiae is an established model system for eukaryotic organisms. They have conserved cellular processes with high homology to those of humans. They proliferate rapidly and are even used as a model to study the effects of anticancer agents. The use of S. cerevisiae in resazurin redox testing is a good alternative to conventional cell viability testing techniques.
The assay is based on the ability of living cells to reduce blue resazurin (7-hydroxy-3H-phenoxazin-3-one 10-oxide) to pink resorufin (7-hydroxy-3H-phenoxazin-3-one) which is measurable by the UV–Vis spectrophotometric or fluorometric method (AlamarBlue^TM). Living cells have active N-methylphenazinium methosulfate that catalyzes the redox reaction in mitochondria of NADH and blue resazurin to produce pink resorufin (Scheme 2). This test is used as an oxidation–reduction indicator in cell viability assays for yeasts and mammalian cells. Reduction of the dye by viable cells decreases the amount of the oxidized form (blue) and, at the same time, increases the amount of its fluorescent intermediate (pink), indicating the degree of cytotoxicity caused by the test material.
S. cerevisiae cells (CCY 21-4-64; Libáň, Czech Republic) were cultured at 28 °C/24h on Saburaud’s dextrose agar with chloramphenicol (Merck, Boston, MA, USA). Subsequently, after 24 h, S. cerevisiae cells were inoculated into sterile liquid YPD medium (Sigma–Aldrich, St. Louis, MO, USA) and cultivation continued at 28 °C/24 h. In the exponential growth phase, cells were centrifuged (8.000 g/3 min), washed twice with sterile physiological solution (0.9% NaCl) and pipetted at a concentration of 1 × 10^9 cells/mL in sterile microtubes (modified procedure from Bitacura, 2018). Sterile physiological solution and copper complexes at concentrations of 1 × 10^−3 M, 3 × 10^−3 M and 5 × 10^−3 M were added to the centrifuged biomass to a total volume of 1 mL and individual samples were cultured in an incubator at 28 °C/3 h. After 3 h, 0.1 mL of ResazurinOX (in vitro toxicology assay kit based on resazurin, Sigma, USA) was added to each sample and the samples were allowed to culture for 2 h. After incubation, the biomass in the samples was separated from the supernatant by centrifugation (8000 g/5 min). The separated solution was diluted in a ratio of 1:1 with physiological solution and subjected to the measurement of UV spectra by the spectrophotometric method according to the recommended protocol of the kit manufacturer (Sigma, USA) on a GENESYS 10S UV–Vis spectrophotometer (Thermo Scientific, USA) in the range of 500–800 nm, using a 1 cm long cuvette.
Cells’ innate metabolic was measured by using an established formula for the reduction percentage. The reduction percentage was calculated using the following formula:(7) Red(%)=ƐOX_600 nm×A570 nm_sample−ƐOX_570 nm×A600 nm_sample/ƐRED_570 nm×A600 nm_C−−ƐRED_600 nm×A570 nm_C−×100

| Structure (SMILES) | mass of pDNA in Form I ([1]; complex 1 mM, of 250 ng pDNA) | mass of pDNA in Form II ([1]; complex 1 mM, of 250 ng pDNA) | mass of pDNA in Form I ([1]; complex 3 mM, of 250 ng pDNA) | mass of pDNA in Form II ([1]; complex 3 mM, of 250 ng pDNA) | Form I (%) ([1]; complex 1 × 10^−3 M) | Form II (%) ([1]; complex 1 × 10^−3 M) | Form III (%) ([1]; complex 1 × 10^−3 M) | Form I (%) ([1]; complex 3 × 10^−3 M) | Form II (%) ([1]; complex 3 × 10^−3 M) | Form III (%) ([1]; complex 3 × 10^−3 M) | Form I (%) ([1]; complex 5 × 10^−3 M) | Form II (%) ([1]; complex 5 × 10^−3 M) | Cell Death (%) (S. cerevisiae cells; complex 1 mM) | Reduction Percentage (%) (S. cerevisiae cells; complex 1 mM) | Cell Death (%) (S. cerevisiae cells; complex 3 mM) | Reduction Percentage (%) (S. cerevisiae cells; complex 3 mM) | Cell Death (%) (S. cerevisiae cells; complex 5 mM) | Reduction Percentage (%) (S. cerevisiae cells; complex 5 mM) | mass of pDNA in Form I ([1]; complex 5 mM, of 250 ng pDNA) | mass of pDNA in Form II ([1]; complex 5 mM, of 250 ng pDNA) | further results |
| --- | --- | --- | --- | --- | --- | --- | --- | --- | --- | --- | --- | --- | --- | --- | --- | --- | --- | --- | --- | --- | --- |
| COc1ccccc1CN=Cc1ccccc1[O-].COc1ccccc1CN=Cc1ccccc1[O-].[Cl-].[Cl-].[Cu+2].[Cu+2] [Complex 4a, [Cu2 (Sal-2-MeOBn)2 Cl2]] | 147 ng | 103 ng | 134,5 ng | 115,5 ng | 58,8% | 41,2% | 0 | 53,8% | 46,2% | 0 | 0% | 0% | 67.1 | 32.9 | 91.6 | 8.4 | 96.5 | 3.5 |  |  | mass of pDNA in Form III ([1]; complex 5 mM, of 250 ng pDNA): 250 ng |
| COc1cccc(CN=Cc2ccccc2[O][Cu][O]c2ccccc2C=NCc2cccc(OC)c2)c1 [Complex 4b, [Cu (Sal-3-MeOBn)2]] | 146,25 ng | 103,75 ng | 140,5 ng | 109,5 ng | 58,5% | 41,5% | 0 | 56,2% | 43,8% | 0 | 48,2% | 51,8% | 76.0 | 24.0 | 92.6 | 7.4 | 99.0 | 1.0 | 120,5 ng | 129,5 ng | Form III (%) ([1]; complex 5 × 10^−3 M): 0% |
| COc1ccc(CN=Cc2ccccc2[O-])cc1.COc1ccc(CN=Cc2ccccc2[O-])cc1.[Cl-].[Cl-].[Cu+2].[Cu+2] [Complex 4c, [Cu2 (Sal-4-MeOBn)2 Cl2]] | 124,5 ng | 125,5 ng |  | 250 ng | 49,8% | 50,2% | 0 | 0% |  | 0 | 4,7% | 95,3% |  | 5.2 | 91.5 | 8.5 | 97.4 | 2.6 | 11,75 ng | 238,25 ng | Form III (%) ([1]; complex 5 × 10^−3 M): 0%; cytotoxic activity (cell death) (S. cerevisiae cells; over the tested concentrations 1–5 mM): above 94% |

— paper PMC12430429, “Synthesis, Structure, DNA/BSA Binding, DNA Cleaving, Cytotoxic and SOD Mimetic Activities of Copper(II) Complexes Derived from Methoxybenzylamine Schiff Base Ligands” (Molecules, 2025)
